From patent US7510836B2, “Alpha arteether resistance domain” (priority 2003, dated 2009)

Columns and labels:
[1] = system: E.coli gyr mutant strains transformed with pMK 90 and pMK47 (functional gyr A and gyrB genes); assay: Trans-complementation assay; assay type: cell-based, Escherichia coli; details: gyr mutant strains carrying pMK 90 / pMK47
Description: (§1) To ascertain the involvement of gyrA mutation, another E.coli strain NK 5819 which is also GyrA″ and nalidixic acid resistant was tested for arteether sensitivity. As expected, strain NK5819 was also sensitive only to a-isomer of arteether. […] The assays for arteether sensitivity was performed by the standard single disk diffusion method (Bauer et al, 1966). As a next step, we isolated gyrA mutants of E.coli strain CA 8000, which is otherwise Gyr+ and nalidixic acid sensitive. The gyrA mutants of CA8000 were isolated as nalidixic acid resistant colonies (20 ug/ml), after mutagenic treatment with NTG ([…]). The isolated CA8000 gyrA mutants were also sensitive only to a isomer of arteether. […] To define precisely the involvement of gyr genes only in the a-arteether sensitivity, we utilised two recombinant clones (pMK 90 and pMK47 containing functional gyr A and gyrB genes respectively) in trans-complementation assays. For this purpose, we mobilized the plasmid clones into the E.coli gyr mutant strains. The resulting transformants were now nalidixic acid sensitive and a-arteether resistant. This constituted the direct evidence supporting our observation that DNA gyrase enzyme alone is involved in conferring a-arteether sensitivity to E.coli strain. […] DNA gyrase enzyme is essential for the bacterial growth. […]

E. coli DH5α = assay: Phenotype of strain (resistance or sensitivity); assay type: cell-based, Escherichia coli; parameters: key to Phenotype: R: resistance; S: sensitivity; details: for Sensitivity or resistance of the strain (words): E.coli DH5a (gyrA 96; Asp87Asn)
Description: (§2) As a result of this mutation, the said strain is also resistant to a drug called nalidixic acid.
(§3) To ascertain the involvement of gyrA mutation, another E.coli strain NK 5819 which is also GyrA″ and nalidixic acid resistant was tested for arteether sensitivity. As expected, strain NK5819 was also sensitive only to a-isomer of arteether. […] The assays for arteether sensitivity was performed by the standard single disk diffusion method (Bauer et al, 1966). As a next step, we isolated gyrA mutants of E.coli strain CA 8000, which is otherwise Gyr+ and nalidixic acid sensitive. The gyrA mutants of CA8000 were isolated as nalidixic acid resistant colonies (20 ug/ml), after mutagenic treatment with NTG ([…]). The isolated CA8000 gyrA mutants were also sensitive only to a isomer of arteether. […] To define precisely the involvement of gyr genes only in the a-arteether sensitivity, we utilised two recombinant clones (pMK 90 and pMK47 containing functional gyr A and gyrB genes respectively) in trans-complementation assays. For this purpose, we mobilized the plasmid clones into the E.coli gyr mutant strains. The resulting transformants were now nalidixic acid sensitive and a-arteether resistant. This constituted the direct evidence supporting our observation that DNA gyrase enzyme alone is involved in conferring a-arteether sensitivity to E.coli strain. […] DNA gyrase enzyme is essential for the bacterial growth. This enzyme transiently breaks the DNA strands and introduces negative superhelical turns in an ATP-dependent process. The E.coli DNA gyrase enzyme is a tetramer with two subunits A and B. These two subunits are nalidixic acid and coumermycin sensitive respectively (U.S. Pat. No. 6,127,405 and a co-pending patent).
(§4) The strains of E coli of the investigation, their phenotypes in terms of a-arteether (resistance or sensitivity, superscript R or S) or antibiotic resistance or sensitivity, change in nucleotide position of the gyrase A gene leading to the phenotype, corresponding amino acid change in the protein and the position of amino acid change are being described. Always the phenotype a-arteether resistance is accompanied with quinolone or fluoroquinolone sensitivity and vice versa.

E. coli CA8002 = assay: Phenotype of strain (resistance or sensitivity); assay type: cell-based, Escherichia coli; parameters: key: R: resistance; S: sensitivity; details: gyrA GGT-TGT(241), Gly-Cys 81
From the text: (§5) In order to develop an arteether resistant mutants from an arteether sensitive strains a reverse strategy was applied. Quinoline/fluoroquinolone (Q/FQs) resistant strains were developed spontaneously i.e. screening overnight log phase culture of the Quinolone/fluoroquinolone sensitive i.e. arteether resistant strain (E coli CA 8000) on the poison agar plate of the Q/FQs. The Q/FQ resistant mutants which appeared on the poison agar plates were first purified through single colony purification and then checked for their arteether sensitivity. These arteether sensitive mutants on the contrary when checked for their Q/Fqs resistance they show different level of Q/FQs resistance.
as §4

E. coli CA8005 = assay: Phenotype of strain (resistance or sensitivity); assay type: cell-based, Escherichia coli; parameters: key: R: resistance; S: sensitivity; details: gyrA GAC-GGC(260), Asp-Gly 87
From the text: as §5, §4

E. coli CA8003 = assay: Phenotype of strain (resistance or sensitivity); assay type: cell-based, Escherichia coli; parameters: key: R: resistance; S: sensitivity; details: gyrA GAC-GGC(260), Asp-Gly 87
From the text: as §5, §4

E. coli CA8006 = assay: Phenotype of strain (resistance or sensitivity); assay type: cell-based, Escherichia coli; parameters: key: R: resistance; S: sensitivity; details: gyrA TCG-TTG(248), Ser-Leu 83
From the text: as §5, §4

E. coli CA8007 = assay: Phenotype of strain (resistance or sensitivity); assay type: cell-based, Escherichia coli; parameters: key: R: resistance; S: sensitivity; details: gyrA TCG-TTG(248), Ser-Leu 83
From the text: as §5, §4

E. coli CA8012 = assay: Phenotype of strain (resistance or sensitivity); assay type: cell-based, Escherichia coli; parameters: key: R: resistance; S: sensitivity; details: gyrA GGT-GAT(242), Gly-Asp 81
From the text: as §5, §4

E. coli CA8010 = assay: Phenotype of strain (resistance or sensitivity); assay type: cell-based, Escherichia coli; parameters: key: R: resistance; S: sensitivity; details: gyrA TCG-TTG(248), Ser-Leu 83
From the text: as §5, §4

E. coli CA8009 = assay: Phenotype of strain (resistance or sensitivity); assay type: cell-based, Escherichia coli; parameters: key: R: resistance; S: sensitivity; details: gyrA TCG-TTG(248), Ser-Leu 83
From the text: as §5, §4

E. coli CA8001 = assay: Phenotype of strain (resistance or sensitivity); assay type: cell-based, Escherichia coli; parameters: key: R: resistance; S: sensitivity; details: gyrA GGT-TGT(241), Gly-Cys 81
From the text: as §5, §4

E. coli ET8000 = assay: Phenotype of strain (resistance or sensitivity); assay type: cell-based, Escherichia coli; parameters: key: R: resistance; S: sensitivity; details: gyrA GAC-AAC(259), Asp-Asn 87
From the text: as §4

[2] = system: E.coli strains which do not carry gyr mutation (wild type strains); assay: Arteether sensitivity of strains without gyr mutation; assay type: cell-based, Escherichia coli
Description: as §2
To ascertain the involvement of gyrA mutation, another E.coli strain NK 5819 which is also GyrA″ and nalidixic acid resistant was tested for arteether sensitivity. As expected, strain NK5819 was also sensitive only to a-isomer of arteether. […] The assays for arteether sensitivity was performed by the standard single disk diffusion method (Bauer et al, 1966). As a next step, we isolated gyrA mutants of E.coli strain CA 8000, which is otherwise Gyr+ and nalidixic acid sensitive. The gyrA mutants of CA8000 were isolated as nalidixic acid resistant colonies (20 ug/ml), after mutagenic treatment with NTG ([…]). The isolated CA8000 gyrA mutants were also sensitive only to a isomer of arteether. […] To define precisely the involvement of gyr genes only in the a-arteether sensitivity, we utilised two recombinant clones (pMK 90 and pMK47 containing functional gyr A and gyrB genes respectively) in trans-complementation assays. For this purpose, we mobilized the plasmid clones into the E.coli gyr mutant strains. The resulting transformants were now nalidixic acid sensitive and a-arteether resistant. This constituted the direct evidence supporting our observation that DNA gyrase enzyme alone is involved in conferring a-arteether sensitivity to E.coli strain. […]

[3] = system: gyrA mutants of E.coli strain CA 8000 (nalidixic acid resistant colonies after NTG); assay: Arteether sensitivity, single disk diffusion; assay type: cell-based, Escherichia coli; details: isolated CA8000 gyrA mutants
Description: as §1

[4] = system: E.coli strain MTCC 482 (GyrB, defective in DNA gyrase B subunit); assay: Arteether sensitivity, single disk diffusion; assay type: cell-based, Escherichia coli; details: E.coli MTCC 482 (gyrB)
Description: as §1

E. coli NK5819 = assay: Phenotype of strain (resistance or sensitivity); assay type: cell-based, Escherichia coli; parameters: key to Phenotype: R: resistance; S: sensitivity
Description: as §3, §4

[5] = system: E. coli mutant strain Rev. 3; assay: Phenotype of revertant (resistance or sensitivity); assay type: cell-based, Escherichia coli; parameters: key: R: resistance; S: sensitivity; details: gyrA GAT-GGT(242), Asp-Gly 81
From the text: as §4
(§6) The commercially available strain E. coli DH5[…] (Stratagene, USA) is sensitive to […]-arteether but resistant to quinolone/fluoroquinolone due to a mutation at 87th aminoacid position of the gyr A protein (Aspartic acid of wild type is changed to Aspargine) with corresponding change in the codon GAC to AAC. This strain was used to screen […]-arteether resistant mutations. The observation was startling as the […]-arteether resistant mutants are the exact reversion at the 87th position of the aminoacid of gyrase A subunit i.e. Aspargine changed to aspartic acid, with corresponding change in the codon AAC to GAC.

[6] = system: E. coli mutant strain Rev. 2; assay: Phenotype of revertant (resistance or sensitivity); assay type: cell-based, Escherichia coli; parameters: key: R: resistance; S: sensitivity; details: gyrA GAT-GGT(242), Asp-Gly 81
From the text: as §4, §6

[7] = system: E. coli mutant strain AR 9 CA8014; assay: Phenotype of revertant (resistance or sensitivity); assay type: cell-based, Escherichia coli; parameters: key: R: resistance; S: sensitivity; details: gyrA AAC-GAC(259), Asn-Asp 87
From the text: as §4, §6

[8] = system: E. coli mutant strain Rev 6; assay: Phenotype of revertant (resistance or sensitivity); assay type: cell-based, Escherichia coli; parameters: key: R: resistance; S: sensitivity; details: gyrA GAT-GGT(242), Asp-Gly 81
From the text: as §4, §6

[9] = system: E. coli mutant strain Rev 5; assay: Phenotype of revertant (resistance or sensitivity); assay type: cell-based, Escherichia coli; parameters: key: R: resistance; S: sensitivity; details: gyrA GAT-GGT(242), Asp-Gly 81
From the text: as §4, §6

[10] = system: E. coli mutant strain Rev 4; assay: Phenotype of revertant (resistance or sensitivity); assay type: cell-based, Escherichia coli; parameters: key: R: resistance; S: sensitivity; details: gyrA GAT-GGT(242), Asp-Gly 81
From the text: as §4, §6

[11] = system: E. coli mutant strain Rev. 1; assay: Phenotype of revertant (resistance or sensitivity); assay type: cell-based, Escherichia coli; parameters: key: R: resistance; S: sensitivity; details: gyrA GAT-GGT(242), Asp-Gly 81
From the text: as §4, §6

[12] = system: E.coli strains which do not carry gyr mutation (wild type strains); details: U.S. Pat. No. 6,127,405; cited from earlier work
[13] = system: gyr mutant strains of E.coli; details: U.S. Pat. No. 6,127,405; cited from earlier work

SMILES: CCO[C@@H]1O[C@@H]2O[C@]3(C)CC[C@H]4[C@H](C)CC[C@@H]([C@H]1C)[C@@]24OO3 [a-arteether, α-arteether]
- Sensitivity or resistance of transformants [1]: resistant
- Phenotype (E. coli DH5α; DH5α, gyrA GAC-AAC(259), Asp-Asn 87): S
- Sensitivity or resistance of the strain (words) (E. coli DH5α; listed as a isomer of arteether): able to inhibit the growth
- Sensitivity or resistance of the strain (words) (E. coli DH5α; listed as α-arteether): sensitive
- Sensitivity or resistance of the strain (words) (E. coli DH5α; listed as […]-arteether): sensitive
- Phenotype (E. coli CA8002): S
- Phenotype (E. coli CA8005): S
- Phenotype (E. coli CA8003): S
- Phenotype (E. coli CA8006): S
- Phenotype (E. coli CA8007): S
- Phenotype (E. coli CA8012): S
- Phenotype (E. coli CA8010): S
- Phenotype (E. coli CA8009): S
- Phenotype (E. coli CA8001): S
- Phenotype (E. coli ET8000): S
- Sensitivity or resistance [2]: invariably resistant
- Arteether sensitivity [3]: sensitive
- Arteether sensitivity [4]: susceptible
- Sensitivity or resistance of the strain (words) (E. coli NK5819; E.coli NK 5819 (GyrA mutant)): sensitive
- Phenotype (E. coli NK5819; NK5819, gyrA GAC-TAC(259), Asp-Gly 87): S
- Phenotype [5]: R
- Phenotype [6]: R
- Phenotype [7]: R
- Phenotype [8]: R
- Phenotype [9]: R
- Phenotype [10]: R
- Phenotype [11]: R
- Inhibitory activity [12]: ineffective
- Inhibitory activity [13]: inhibitory
